Test results: patent publication US9724334B1, “Method for treating a neurodegenerative disease or depression comprising administering derivatives of 2-amino-2-(1-dodecyl-1H-1,2,3-triazol-4-yl)propane-1,3-diol” (Kyungpook National University Industry-Academic Cooperation …, priority 2016, dated 2017)
Blank lines part the entries; values can stand above or below the compound they belong to.

What was measured:
[1] = biological target: T1, ASM (acid sphingomyelinase) (Homo sapiens, UniProt P17405); assay: ASM activity in fibroblasts derived from Alzheimer's disease patients (PS1 fibroblasts); assay type: cell-based; parameters: dose or concentration left out as unconfirmed; conditions: for change of ASM activity: PS1 fibroblasts with increased ASM activity, versus untreated PS1 fibroblasts
T1 construct: fibroblasts (PS1 fibroblasts) derived from Alzheimer's disease patients, followed by the measurement of the change of ASM activity; host or cells: human fibroblast cell lines (PS1, from Alzheimer's disease patients)
T1 sequence (P17405 47-631): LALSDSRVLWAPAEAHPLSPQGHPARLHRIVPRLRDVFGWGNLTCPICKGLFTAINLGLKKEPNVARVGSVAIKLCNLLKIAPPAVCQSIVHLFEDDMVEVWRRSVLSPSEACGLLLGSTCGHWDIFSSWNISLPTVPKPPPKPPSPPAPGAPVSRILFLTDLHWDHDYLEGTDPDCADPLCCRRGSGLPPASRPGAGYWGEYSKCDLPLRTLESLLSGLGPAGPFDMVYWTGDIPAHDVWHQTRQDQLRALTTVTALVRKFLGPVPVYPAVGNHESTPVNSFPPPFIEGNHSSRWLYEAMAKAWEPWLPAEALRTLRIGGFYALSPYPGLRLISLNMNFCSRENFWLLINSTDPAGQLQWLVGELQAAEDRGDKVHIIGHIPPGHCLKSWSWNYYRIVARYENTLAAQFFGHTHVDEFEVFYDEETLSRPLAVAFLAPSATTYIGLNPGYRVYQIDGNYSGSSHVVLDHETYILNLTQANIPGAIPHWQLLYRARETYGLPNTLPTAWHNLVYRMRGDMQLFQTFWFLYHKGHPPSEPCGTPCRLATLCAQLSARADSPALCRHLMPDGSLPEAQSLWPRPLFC
Description: Human fibroblast cell lines (normal and PS1) were obtained from Coriell Institute and cultured in DMEM containing 15% FBS under the condition of 5% CO2 at 37° C. Subsequently, the cell lines were treated with the ASM inhibitory compound of the Chemical Formula 1, amitriptyline (AMI) and FTY720, followed by measuring the change of ASM activity. The concentration levels of ASM were measured as follows. Specifically, a microliter mouse plasma, brain tissue and 3 μl of fibroblast samples were mixed with ASM activity buffer and stored at 37° C. 114 μl of ethanol was added to terminate the hydrolysis reaction, followed by centrifugation. 30 μl of the supernatant was transferred to a glass vial, of which 5 μl was applied to the UPLC system. The ASM concentration levels were quantified by comparison with Bodipy (aminoacetaldehyde) conjugated with sphingomyelin and ceramide. Extraction and quantification of the sphingomyelin and ceramide were performed by extracting lipids from known method samples and resuspending the dried lipid extract in 25 μl of 0.2% Igepal CA-630 (Sigma-Aldrich). Each lipid level was quantified using the UPLC system. In order to confirm the ASM inhibitory effect of the compound developed according to the present invention, the ASM inhibitory compound of the Chemical Formula 2, AMI and FTY720 were treated […] concentration, respectively, in the fibroblasts (PS1 fibroblasts) derived from Alzheimer's disease patients, followed by the measurement of the change of ASM activity.

APP/PS1 mice [2] = assay: Morris water maze (MWM), learning and memory in APP/PS1 mice; assay type: in vivo, mouse; conditions: 100 mg/kg/day via drinking water
Description: (§1) To confirm the therapeutic effect of the novel ASM inhibitory compounds, the novel ASM inhibitory compound or AMI were fed via drinking water at a dose of 100 mg/kg/day to mice at 5.5 months of age. Three months after the feeding, behavioral analysis on the mice was performed, followed by sampling of mouse brain tissues (FIG. 3).
(§2) Morris water maze (MWM) and fear conditioning experiments were conducted to identify potential effects on learning and memory. For MWM, the mice were learned the task four times a day for 10 days, followed by the removal of the platform at the 11th day and subsequently a probe trial. On the first day of the fear conditioning, the mice were placed in the conditioning chamber and subjected to sound stimulation (10 kHz, 70 dB) and electrical stimulation (0.3 mA, 1s). On the second day, their memory was checked without stimulation in the same conditioning chamber as on the first day. On the third day, memory tests were conducted for fear when only sound stimulation was given in another conditioning chamber. Open field tests and dark & light tests were conducted to assess activity and anxiety. In the open field test, the mice were placed in a square box for 10 minutes to measure their overall activity and time spent wandering the wall and center. In the dark & light test, the mice were placed in a rectangular box composed of a dark box and a bright box for 10 minutes to measure the time spent in each box, the number of round trips, and the time when the mice entered the bright box for the first time.
In order to determine the potential effect of the novel ASM inhibitory compound of the present invention on learning and cognition in the animal models of Alzheimer's disease, the MWM (Morris water maze) and the fear conditioning test were performed, respectively.

APP/PS1 mice [3] = assay: Open field test and dark & light test (activity and anxiety) in APP/PS1 mice; assay type: in vivo, mouse; conditions: 100 mg/kg/day via drinking water, versus APP/PS1 mice
Description: as §1
as §2, with “In the dark & light test, the mice were placed in a rectangular box composed of a dark box and a bright box for 10 minutes to measure the time spent in each box, the number of round trips, and the time when the mice entered the bright box for the first time.” left out

[4] = biological target: T2, ASM (acid sphingomyelinase) (Mus musculus, UniProt Q04519); assay: ASM concentration levels in plasma and brain tissue of APP/PS1 mice after feeding via drinking water; assay type: in vivo; conditions: 100 mg/kg/day via drinking water
T2 construct: from tissue; host or cells: plasma and brain tissue of APP/PS1 transgenic mice (C57BL/6 background)
T2 sequence (Q04519 45-627): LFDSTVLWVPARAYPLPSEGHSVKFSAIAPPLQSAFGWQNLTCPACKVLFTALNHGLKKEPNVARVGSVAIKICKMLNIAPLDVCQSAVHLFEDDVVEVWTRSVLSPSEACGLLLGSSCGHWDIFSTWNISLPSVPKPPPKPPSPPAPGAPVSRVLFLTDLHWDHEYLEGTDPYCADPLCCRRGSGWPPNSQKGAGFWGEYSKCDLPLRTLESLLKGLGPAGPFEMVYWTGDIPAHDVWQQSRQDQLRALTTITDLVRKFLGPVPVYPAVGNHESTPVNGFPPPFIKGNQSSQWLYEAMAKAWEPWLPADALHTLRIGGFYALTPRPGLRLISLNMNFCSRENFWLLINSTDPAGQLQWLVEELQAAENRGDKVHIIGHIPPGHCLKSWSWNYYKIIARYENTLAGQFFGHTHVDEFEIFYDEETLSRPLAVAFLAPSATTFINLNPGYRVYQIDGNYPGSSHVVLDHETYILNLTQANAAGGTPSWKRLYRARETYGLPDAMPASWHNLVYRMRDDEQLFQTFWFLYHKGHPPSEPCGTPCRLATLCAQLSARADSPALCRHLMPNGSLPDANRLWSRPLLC
Text: IACUC (Kyungpook National University Institutional Animal Care and Use Committee) approved the present mouse experiment. A transgenic mouse line overexpressing APPswe (hAPP695swe) or PS1 (presenilin-1M146V) was used based on C57BL/6 mouse (Charles River, UK) (hereinafter, APP mouse: APPswe-overexpressing mouse, PS1 mouse: presenilin-1M146V overexpressing mouse; GlaxoSmithKline). To confirm the therapeutic effect of the novel ASM inhibitory compounds, the novel ASM inhibitory compound or AMI were fed via drinking water at a dose of 100 mg/kg/day to mice at 5.5 months of age. Three months after the feeding, behavioral analysis on the mice was performed, followed by sampling of mouse brain tissues (FIG. 3). The concentration levels of ASM were measured as follows. Specifically, a microliter mouse plasma, brain tissue and 3 μl of fibroblast samples were mixed with ASM activity buffer and stored at 37° C. 114 μl of ethanol was added to terminate the hydrolysis reaction, followed by centrifugation. 30 μl of the supernatant was transferred to a glass vial, of which 5 μl was applied to the UPLC system. The ASM concentration levels were quantified by comparison with Bodipy (aminoacetaldehyde) conjugated with sphingomyelin and ceramide. Extraction and quantification of the sphingomyelin and ceramide were performed by extracting lipids from known method samples and resuspending the dried lipid extract in 25 μl of 0.2% Igepal CA-630 (Sigma-Aldrich). Each lipid level was quantified using the UPLC system. Using an experimental animal model APP/PS1 mouse for Alzheimer's disease patients, ASM concentration levels in plasma and brain tissues were measured after administration of AMI, which is the most widely used as an ASM inhibitor, and the novel ASM inhibitory compound of the Chemical Formula 2.

APP/PS1 mice [5] = assay: Real-time quantitative PCR of inflammatory cytokines (TNF-α, IL-1b, IL-6) in brain of APP/PS1 mice; assay type: in vivo, mouse; conditions: mRNA, cerebral cortex, 100 mg/kg/day via drinking water, versus wild-type
Description: as §1
Real-time quantitative PCR was used to measure the expression levels of inflammatory cytokines (TNF-α, IL-1b, and IL-6). Total RNAs were extracted from brain tissues using RNeasy Plus mini kit (Qiagen, Korea, Ltd.), while cDNAs were synthesized from 5 μg of total RNAs using a kit from Clontech (Mountain View, Calif.). Also, using Corbett research RG-6000 real-time PCR instrument, PCR was performed at 95° C. for 10 minutes; 95° C. for 10 seconds; 58° C. for 15 seconds; 72° C. for 20 seconds as one cycle, while real-time quantitative PCR was performed in which 40 cycles were repeated.
(§3) In order to determine the effect of the novel ASM inhibitory compounds according to the present invention on the change of nerve inflammation in the APP/PS1 mice, the present inventors observed a change in astrocytes of their brains.

APP/PS1 mice [6] = assay: Astrocytes (GFAP immunofluorescence) in cerebral cortex of APP/PS1 mice; assay type: in vivo, mouse; conditions: 100 mg/kg/day via drinking water, versus APP/PS1 mice
Description: as §1
(§4) After fixing the cerebrum and hippocampus of the test mice, 0.5% thioflavin S (Sigma-Aldrich), anti-20G10 antibodies (Mouse, 1:1000) against Aβ, 42 and anti-G30 antibodies (rabbit, 1:1000) against Aβ, 40, anti-GFAP antibodies (rabbit, 1:500, DAKO) were cultured together. The above sites were analyzed using a laser scanning confocal microscope equipped with Fluoview SV1000 imaging software (Olympus FV1000, Japan) or an Olympus BX51 microscope. Percentage of area of stained area to total tissue area was quantified and analyzed using Metamorph software (Molecular Devices).
as §3

APP/PS1 mice [7] = assay: Amyloid-β deposition in brain of APP/PS1 mice (thioflavin S staining, Aβ40 and Aβ42 immunofluorescence); assay type: in vivo, mouse; conditions: 100 mg/kg/day via drinking water
Text: IACUC (Kyungpook National University Institutional Animal Care and Use Committee) approved the present mouse experiment. A transgenic mouse line overexpressing APPswe (hAPP695swe) or PS1 (presenilin-1M146V) was used based on C57BL/6 mouse (Charles River, UK) (hereinafter, APP mouse: APPswe-overexpressing mouse, PS1 mouse: presenilin-1M146V overexpressing mouse; GlaxoSmithKline).
as §1, §4
In order to confirm the effect of the novel ASM inhibitory compound of the Chemical Formula 2 on the lesion of Alzheimer's disease, the ASM inhibitory compound of the Chemical Formula 2 and AMI were administered orally for four months, respectively, as shown in FIG. 3.
To begin with, the profile of Aβ of Alzheimer's disease was identified. First, according to known methods in the art, the cerebral cortex and hippocampus of the mice were stained with thioflavin S (ThioS), confirming the fibrillary amyloid-β deposition. In addition, amyloid-β deposition was confirmed by carrying out the Aβ40 and Aβ42 immunofluorescence.

APP/PS1 mice [8] = assay: Fear conditioning test in APP/PS1 mice; assay type: in vivo, mouse; conditions: 100 mg/kg/day via drinking water
Description: as §1
as §2, with “In the dark & light test, the mice were placed in a rectangular box composed of a dark box and a bright box for 10 minutes to measure the time spent in each box, the number of round trips, and the time when the mice entered the bright box for the first time.” left out

APP/PS1 mice [9] = assay: Western blotting of autophagy-related proteins (LC3, Beclin-1, cathepsin D, p62) in brain tissue of APP/PS1 mice; assay type: in vivo, mouse
Description: as §1
Expression of the following genes was analyzed using Western blotting. First, antibodies against LC3, Becklin-1, p62 (All of them were purchased from Cell Signaling Technologies), Cathepsin D (R&D systems) and β-actin (Santa Cruz) were used, while densitometric quantification was performed using ImageJ Software (US National Institutes of Health).
In order to verify the mechanism of the ASM inhibitory compound of the Chemical Formula 2 in the autophagy-related pathways upon its administration, the conversion of LC3-I into LC3-II, and the expression levels of Beclin-1, cathepsin D and p62 in the brain tissue samples of the WT mice, APP/PS1 mice, and APP/PS1 mice treated with the ASM inhibitory compound of the Chemical Formula 2 which were 9.5 months old, respectively, were confirmed by Western blotting experiments.

[10] = 9.5 month-old APP/PS1 mice, versus unfed APP/PS1 mice
[11] = brain tissue immunofluorescence, versus APP/PS1 mice
[12] = 9.5 months old APP/PS1 mice, treated versus untreated

change of ASM activity [1]: markedly reduced
SMILES: CCCCCCCCc1ccc(CCC(N)(CO)CO)cc1 [FTY720, reference compound]

ASM concentration level in brain tissues [4, 10]: remarkably low
ASM concentration level in plasma [4, 10]: remarkably low
change of ASM activity [1]: markedly reduced
SMILES: CCCCCCCCCCCCn1cc(C(N)(CO)CO)nn1 [Chemical Formula 2, 2-amino-2-(1-dodecyl-1H-1,2,3-triazol-4-yl)propane-1,3-diol]
cognitive improvement compared with AMI (APP/PS1 mice [2]): more pronounced
spatial memory, cognitive and memory formation disability (APP/PS1 mice [2]; versus unfed APP/PS1 mice): improved
activity and anxiety (APP/PS1 mice [3]): significantly improved
ASM inhibition in plasma and brain tissues compared with AMI ([4]; APP/PS1 mice): more significantly effective in inhibiting ASM activity than AMI
gene expression of IL-1b (APP/PS1 mice [5]): restored to their normal levels
gene expression of IL-6 (APP/PS1 mice [5]): restored to their normal levels
gene expression of TNF-α (APP/PS1 mice [5]): restored to their normal levels
activity of astrocytes (GFAP) (APP/PS1 mice [6]): significantly decreased
amyloid-β deposition compared with mice treated with AMI (APP/PS1 mice [7]): more remarkably reduced
Aβ40 deposition (APP/PS1 mice [7]; [11]): significantly lower
Aβ42 deposition (APP/PS1 mice [7]; [11]): significantly lower
fibrillary Aβ deposition (thioflavin S) (APP/PS1 mice [7]; cerebral cortex and hippocampus, versus APP/PS1 mice): significantly lower
memory in the fear conditioning test (contextual and tone tasks) (APP/PS1 mice [8]): effect of improving the memory
conversion of LC3-I to LC3-II (APP/PS1 mice [9]; [12]): decreased
expression level of cathepsin D (APP/PS1 mice [9]; [12]): decreased
expression level of p62 (APP/PS1 mice [9]; [12]): decreased
expression of Beclin-1 (APP/PS1 mice [9]; 9.5 months old, WT, APP/PS1 and treated APP/PS1 mice compared): little difference
ASM inhibitory effect compared with the other substances (AMI, FTY720) ([1]; PS1 fibroblasts): more remarkably effective in inhibiting ASM activity than the other substances
